According to PMC8709388, “In Search of Small Molecules That Selectively Inhibit MBOAT4” (Molecules, 2021):

Target: T1, mouse GOAT (Mus musculus, UniProt P0C7A3)
T1 construct: made in house; host or cells: sf9 insect cells (baculovirus, pFastBac1-mouseGOAT); total membrane fraction, not purified
T1 sequence (P0C7A3 1-435): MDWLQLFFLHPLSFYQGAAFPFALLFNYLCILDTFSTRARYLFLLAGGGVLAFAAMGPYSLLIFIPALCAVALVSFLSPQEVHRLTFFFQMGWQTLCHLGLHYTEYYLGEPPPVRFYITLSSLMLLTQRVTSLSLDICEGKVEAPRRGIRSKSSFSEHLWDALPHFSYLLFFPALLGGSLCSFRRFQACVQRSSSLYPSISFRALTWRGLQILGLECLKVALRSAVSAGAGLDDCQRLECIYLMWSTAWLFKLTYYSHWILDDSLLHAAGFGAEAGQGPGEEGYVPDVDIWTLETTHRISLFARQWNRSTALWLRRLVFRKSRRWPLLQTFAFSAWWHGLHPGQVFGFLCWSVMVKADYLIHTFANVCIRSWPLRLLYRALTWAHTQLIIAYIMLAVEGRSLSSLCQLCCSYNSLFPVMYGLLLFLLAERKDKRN
Experiment: Acyltransferase assay: inhibition of proghrelin octanoylation by GOAT in sf9 membrane fractions
Type: biochemical
Details: for GOAT inhibition in vitro (in words): membrane fractions; for IC50: sf9 membranes containing mouse GOAT, [3H]octanoyl CoA, proghrelin8His, read-out: IC50 (GOAT, membrane fraction, in-house)
Description: pFastBac1-mouseGOAT and pGEX-GST-proGhrelin8His plasmid encoding for mouse proghrelin, fused to GST with TEV cleavage site to release proghrelin moiety, was a kind gift from the Brown and Goldstein laboratory. The BL21Gold E. coli chemically competent cells were transformed with the pGEX-GST-proGhrelin8His plasmid and selected on agar plates with ampicillin. A few colonies were used to inoculate 50 mL LB, and cultures were grown overnight at 37 °C. The next morning, 10 mL of overnight culture was used to inoculate 1L LB. A total of 4 flasks with 1L LB each were inoculated with 10 mL of the overnight culture, and bacterial cultures were grown at 37 °C until they reached OD600 ~ 0.6. The cultures were chilled on ice for 30 min and then 0.25 mM of IPTG was added to each culture. The cultures were then moved back to a shaker set to 18 °C and incubated overnight. Cells were harvested and resuspended in 200 mL buffer containing 25 mM Tris-HCl pH 8.0, 150 mM NaCl, 1 mM EDTA and 0.5 mg/mL lysozyme. The cell suspension was sonicated, and cell debris was removed by centrifugation. The soluble fraction was passed through glutathione resin by gravity. The resin was washed with 75 mL of lysis buffer without lysozyme. The GST-proGhrelin8His protein was eluted with lysis buffer without lysozyme, supplemented with 15 mM reduced glutathione, GSH. About 50 mg of target protein, as evaluated by SDS-PAGE, was eluted. The eluate was supplemented with 1 mM DTT and about 7.5 mg of recombinant GST-TEV protease (see below) was added. The solution was incubated at 16 °C overnight to allow complete release of proghrelin8His from GST. Prior to Ni-NTA chromatography, 5 mM CaCl2 was added, and the solution was spun down at 4000× g for 10 min. After elution from Ni-NTA resin, protein solution was dialyzed against buffer containing 10 mM Tris-HCl pH 8.5, 50 mM NaCl, 10% glycerol and 0.01% CHAPS using 3 kDa cutoff membrane with 3 buffer exchanges. The protein was quantified by absorbance at A280 and qualified by SDS-PAGE.
The baculovirus expression of mouse GOAT. DH10Bac E. coli strain (ThermoFisher, Waltham, MA, USA) was transformed with pFastBac1-mouseGOAT plasmid, and Bacmid DNA from 12 white colonies was analyzed by DNA sequencing and PCR reaction. All clones were transfected to sf9 cells and level of mGOAT expression was compared between clones from cells producing P2. The clone with the highest mGOAT expression level was used to produce P3. For membrane isolation, sf9 cells were seeded at 2–4 × 10^6 /mL in total 1 L volume of sf-900 serum-free medium (ThermoFisher) and infected with P3 virus. At day 2 post-infection, cells were harvested and resuspended in 40 mL of buffer containing 50 mM NaPi pH 7.2, 150 mM NaCl, 1 mM EDTA, 100 μM bis (4-nitrophenyl) phosphate, 2.5 μg/mL aprotinin, 10 μg/mL leupeptin, 10 μg/mL pepstatin A. Cell suspension was briefly sonicated and cell debris was removed by centrifugation at 3000× g for 10 min. Membrane fraction was collected from supernatant by centrifugation at 100,000× g for 1 h. Membrane pellet was resuspended in storage buffer (50 mM NaPi pH 7.2, 150 mM NaCl and 10% glycerol) and kept at −80 °C. Acyltransferase assay: The assay conditions included per 50 μL reaction: 50 μg of total sf9 membranes, various (for modality experiment) or fixed (for IC50) concentrations of recombinant proghrelin8His peptide and various concentrations of tested compound (for IC50), 100 μM palmitoyl CoA, 50 mM HEPES pH 7.0 and 1 μM [^3H] octanoyl CoA (~5.5 dpm/fmol—American Radioactive Chemicals). After incubation of the reaction mixture at 37C for 10 min, tubes were placed on ice and 10 μL of 1M HCl was added to each tube. Following the addition of 740 μL of cold quench buffer (50 mM NaPi pH 7.4, 10 mM Imidazole, 150 mM NaCl, 100 μM bis (4-nitrophenyl) phosphate, 1 mM phenylmethylsulfonyl fluoride and 0.1% Triton), 0.2 mL of 50% Ni-NTA slurry was added to each reaction. […]

IC50 [nM] | Structure (SMILES) | GOAT inhibition in vitro (in words)
64 | CNC(=O)c1cccc(Cc2c(C)nc3nonc3c2N)n1 [compound 6, reference compound] | 
84 | Cc1nc2nonc2c(N)c1CCC1CCN(C(=O)[C@H](C)NC(=O)c2ccnn2C)CC1 [compound 11, (S)-N-(1-(4-(2-(7-amino-5-methyl-[1,2,5]oxadiazolo[3,4-b]pyridin-6-yl)ethyl)pip-eridin-1-yl)-1-oxopropan-2-yl)-1-methyl-1H-pyrazole-5-carboxamide] | as potently as did 5 and 6
88 | Cc1nc(Cl)nc(N)c1CCC1CCN(C(=O)[C@H](C)NC(=O)c2ccnn2C)CC1 [compound 5] | 

Structure (SMILES) | IC50 [nM] | GOAT inhibition in vitro (in words)
CCCCOCC(=O)N1CCC(CCc2c(C)nc3nonc3c2N)CC1 [compound 10, 1-(4-(2-(7-amino-5-methyl-[1,2,5]oxadiazolo[3,4-b]pyridin-6-yl)ethyl)piperidin-1-yl)-2-butoxyethan-1-one] | 63 | as potently as did 5 and 6
